From ChEMBL document CHEMBL4359843, “Linear and Rationally Designed Stapled Peptides Abrogate TLR4 Pathway and Relieve Inflammatory Symptoms in Rheumatoid Arthritis Rat Model” (J Med Chem, 2019)
Activity calls are given as the source filed them. The calls are words filed in the database; no cut-off is given here. Where a SMILES comes first, the peptide text is derived from it. Bridges are numbered along the chain shown (N, C = ends).

Tests used:
[1] = molecular target: T1, Toll-like receptor 9 (Homo sapiens) (UniProt Q9NR96); assay: Antagonist activity at TLR9 in human THP1 cells assessed as reduction in CpG ODN-induced IL6 secretion at 50 uM after 24 hrs by ELISA; format: cell-based
T1 sequence (whole entry): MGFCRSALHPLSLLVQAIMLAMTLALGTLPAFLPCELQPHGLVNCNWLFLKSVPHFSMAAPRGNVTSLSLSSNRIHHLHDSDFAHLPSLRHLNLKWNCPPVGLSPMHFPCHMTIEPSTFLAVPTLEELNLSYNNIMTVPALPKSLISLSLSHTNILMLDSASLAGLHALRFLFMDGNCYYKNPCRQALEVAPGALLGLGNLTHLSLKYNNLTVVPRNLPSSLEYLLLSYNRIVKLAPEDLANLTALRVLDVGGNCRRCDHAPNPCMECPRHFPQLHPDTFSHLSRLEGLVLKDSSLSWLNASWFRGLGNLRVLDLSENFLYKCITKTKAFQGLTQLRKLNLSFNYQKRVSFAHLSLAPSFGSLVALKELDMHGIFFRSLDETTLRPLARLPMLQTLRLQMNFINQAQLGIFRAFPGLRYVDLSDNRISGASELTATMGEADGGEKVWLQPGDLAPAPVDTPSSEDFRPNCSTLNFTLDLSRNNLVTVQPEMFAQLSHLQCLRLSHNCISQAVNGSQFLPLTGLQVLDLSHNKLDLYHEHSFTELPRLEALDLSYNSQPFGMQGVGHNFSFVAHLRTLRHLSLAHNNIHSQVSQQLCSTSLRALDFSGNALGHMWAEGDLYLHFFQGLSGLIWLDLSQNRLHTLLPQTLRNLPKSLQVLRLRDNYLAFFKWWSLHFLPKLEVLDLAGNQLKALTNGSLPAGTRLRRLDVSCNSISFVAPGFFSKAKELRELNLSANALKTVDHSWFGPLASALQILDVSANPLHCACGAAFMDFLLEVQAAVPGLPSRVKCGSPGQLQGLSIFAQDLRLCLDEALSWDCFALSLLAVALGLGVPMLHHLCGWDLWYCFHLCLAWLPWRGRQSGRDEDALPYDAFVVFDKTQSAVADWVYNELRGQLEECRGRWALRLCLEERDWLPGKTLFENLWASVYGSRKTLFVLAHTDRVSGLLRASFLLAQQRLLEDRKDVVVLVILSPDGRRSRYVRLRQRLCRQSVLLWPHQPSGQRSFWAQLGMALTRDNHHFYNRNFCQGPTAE

[2] = molecular target: T2, Toll-like receptor 4 (Mus musculus) (UniProt Q9QUK6); assay: Antagonist activity at TLR4 in mouse RAW264.7 cells assessed as reduction in LPS-induced extracellular NO secretion at 5 to 50 uM by spectrophotometric method; format: cell-based
T2 sequence (whole entry): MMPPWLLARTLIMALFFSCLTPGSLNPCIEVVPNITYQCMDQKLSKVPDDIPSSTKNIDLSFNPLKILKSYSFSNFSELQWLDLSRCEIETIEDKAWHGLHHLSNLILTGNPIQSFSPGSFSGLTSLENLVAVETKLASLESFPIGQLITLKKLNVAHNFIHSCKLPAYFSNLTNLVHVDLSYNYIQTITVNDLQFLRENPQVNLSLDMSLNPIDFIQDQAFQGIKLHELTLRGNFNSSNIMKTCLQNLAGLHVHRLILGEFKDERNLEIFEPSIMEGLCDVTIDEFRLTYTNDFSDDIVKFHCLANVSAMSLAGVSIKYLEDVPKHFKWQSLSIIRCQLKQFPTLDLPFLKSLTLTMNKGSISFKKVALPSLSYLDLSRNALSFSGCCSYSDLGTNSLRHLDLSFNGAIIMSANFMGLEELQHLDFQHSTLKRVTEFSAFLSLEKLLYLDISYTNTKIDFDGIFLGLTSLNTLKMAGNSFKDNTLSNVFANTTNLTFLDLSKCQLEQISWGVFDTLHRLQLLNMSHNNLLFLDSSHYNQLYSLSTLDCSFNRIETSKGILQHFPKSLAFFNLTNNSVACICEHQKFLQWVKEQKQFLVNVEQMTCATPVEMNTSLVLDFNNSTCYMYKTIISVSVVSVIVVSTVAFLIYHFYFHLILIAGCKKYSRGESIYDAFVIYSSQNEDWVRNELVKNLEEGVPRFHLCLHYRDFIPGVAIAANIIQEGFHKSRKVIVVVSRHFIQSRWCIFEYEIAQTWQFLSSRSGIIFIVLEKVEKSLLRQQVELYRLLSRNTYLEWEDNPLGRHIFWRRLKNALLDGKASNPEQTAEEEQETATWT

[3] = molecular target: T3, Toll-like receptor 1/2 (Homo sapiens) (UniProt O60603+Q15399); assay: Antagonist activity at TLR2/1 in human THP1 cells assessed as reduction in PAM3CSK4-induced IL6 secretion at 50 uM after 24 hrs by ELISA; format: cell-based
Rattus norvegicus [4] = assay: Antiarthritic activity in Lewis rat model of complete Freund's adjuvant-induced arthritis assessed as reduction in ankle diameter at 1 nmol/g administered intra-articularly into knee joint for 6 weeks and measured every week during compound dosing by vernier caliper analysis; format: functional, organism-based
Rattus norvegicus [5] = assay: Antiarthritic activity in Lewis rat model of complete Freund's adjuvant-induced arthritis assessed as increase in cartilage thickness at 1 nmol/g administered intra-articularly into knee joint after 1 week by H and E staining based histopathological analysis; format: functional, organism-based
Rattus norvegicus [6] = assay: Antiarthritic activity in Lewis rat model of complete Freund's adjuvant-induced arthritis assessed as appearance of rounded mature chondrocytes surrounded by GAG deposition at 1 nmol/g administered intra-articularly into knee joint and measured on third week by Safranin-O staining based histopathological analysis; format: functional, organism-based
[7] = molecular target: T2, Toll-like receptor 4 (Mus musculus); assay: Antagonist activity at TLR4 in mouse RAW264.7 cells assessed as reduction in LPS-induced NFkappaB p65 phosphorylation at 80 uM after 15 to 30 mins by Western blot analysis; format: cell-based
[8] = molecular target: T2, Toll-like receptor 4 (Mus musculus); assay: Antagonist activity at TLR4 in mouse RAW264.7 cells assessed as reduction in LPS-induced NFkappaB p65 phosphorylation at 80 uM preincubated for 1 hr followed by LPS stimulation and measured after 30 mins by Alexafluor-488/Hoechst 33258 staining based immunofluorescence confocal microscopic method; format: cell-based
[9] = molecular target: T2, Toll-like receptor 4 (Mus musculus); assay: Antagonist activity at TLR4 in mouse RAW264.7 cells assessed as reduction in LPS-induced cytosolic NO level at 80 uM by DAF-FM staining based FACS analysis; format: cell-based
[10] = molecular target: Toll-like receptor 1/2 (Mus musculus) (UniProt Q9QUN7+Q9EPQ1); assay: Antagonist activity at TLR2/1 in mouse RAW264.7 cells assessed as reduction in PAM3CSK4-induced TNFalpha secretion at 20 to 80 uM after 24 hrs by ELISA; format: cell-based
[11] = molecular target: T3, Toll-like receptor 1/2 (Homo sapiens); assay: Antagonist activity at TLR2/1 in human PBMC cells assessed as reduction in PAM3CSK4-induced TNFalpha secretion at 20 to 80 uM after 24 hrs by ELISA; format: cell-based
[12] = molecular target: T3, Toll-like receptor 1/2 (Homo sapiens); assay: Antagonist activity at TLR2/1 in human PBMC cells assessed as reduction in PAM3CSK4-induced IL6 secretion at 20 to 80 uM after 24 hrs by ELISA; format: cell-based
Mus musculus = assay: Antiinflammatory activity in C57BL/6J mouse assessed as reduction in LPS-induced IL6 secretion at 70 nmol/g, ip pretreated for 1 hr followed by LPS challenge and measured after 2 hrs by ELISA; format: functional, organism-based

Activity [1] | Activity [2] | Activity [3] | Activity [7] | Activity [8] | Activity [9] | Activity [10] | Activity [11] | Activity [12] | Compound | Activity (Rattus norvegicus [4]) | Activity (Rattus norvegicus [5]) | Activity (Rattus norvegicus [6]) | Activity (Mus musculus)
Active | Active | Active |  |  |  |  |  |  | CC[C@H](C)[C@@H]1NC(=O)[C@H](Cc2c[nH]c3ccccc23)NC(=O)[C@H](Cc2c[nH]c3ccccc23)NC(=O)[C@@H](NC(=O)[C@H](CO)NC(=O)[C@H](Cc2ccccc2)NC(=O)[C@@H](NC(=O)CNC(=O)[C@@H](N)CC(C)C)C(C)C)CC(=O)NCCCC[C@@H](C(=O)N[C@@H](CC(C)C)C(=O)N[C@H](C(=O)O)C(C)C)NC1=O (H-LGVFSDWWIKLV-OH; lactam 6-10) | Active | Active | Active | 
 |  |  | Active | Active | Active | inactive | inactive | inactive | H-LGVFSSWWIKLV-OH |  |  |  | Active
